One substance from patent US6069128A, “Transiently membrane-permeable derivatives converted intracellularly into active peptides” (Universite Laval, priority 1998, dated 2000) can be followed below.

Where no end group is shown, it is not given here.

For this assay, the system named is IL-8-induced leukocyte migration. The assay can be described thus: IL-8-induced leukocyte migration into the mouse air pouch. As to conditions: BALBc mice; 100 μg peptide intravenously in the tail one hour before subdermal IL-8 (1 μg); leukocytes collected two and a half hours after IL-8. It is filed as in vivo. As for the experimental part: In the second series of experiments, inhibition of leukocyte migration in BALBc mice was chosen as an in vivo assay as a first step towards the use of the modified peptides in humans. 100 ug of the DRYLAIVHAT/AM peptide, diluted in cyclodextrane or polythelene glycol, was injected intravenously in the tails of BALBc mice one hour prior to the subdermal injection of IL-8. In the presence of the modified peptide, leukocyte migration was inhibited when compared to the migration observed in untreated animals (FIG. 4).
In FIG. 4, the peak increase in leukocyte migration induced by IL-8 is shown. The peptides (100 μg) (native or transformed) were injected intravenously in the tails of the BALBC mice one hour prior to IL-8 injection. The basal cell number was 0.25×10^6 cells and the increases represent the differences between the basal and the peak levels of the leukocytes collected two and a half hours after IL-8 stimulation. The data represent the mean ±SEM of the number of experiments indicated in parenthesis.

In the case of “DRYLAIVHAT/AM: acetoxymethyl ester (AM) membrane-permeable derivative of the peptide from the second intracellular loop of the interleukin 8 type A receptor (also: acetoxymethyl ester (AM) derivative)”, the “inhibition of leukocyte migration induced by IL-8” value is listed as “inhibited”.
